One series has as its system his3 heterozygous strain. The conditions noted are these: cited from earlier work.
The subject of another series is tub2 heterozygote. Put plainly: HSP26 promoter GFP-uv reporter stress response, fluorimeter. The class given is cell-based, Saccharomyces cerevisiae. More on the design: key: F = fluorescent activity from hsp reporter construct, indicating stress response is induced; NF = no fluorescence, no induction of stress response. As to conditions: predicted expectations. From the text:
(§1) Stress response gene reporter constructs are generally constructed as follows: approximately 500 bp to approximately 1,000 bp or more region upstream of the first start codon of the stress gene of interest (the region encompassing the stress response gene promoter) is fused to the coding region of a reporter polypeptide (e.g., GFP-uv in pRS316 (Sikorski and Hieter (1989) Genetics 122(1):19-27, Clontech). In a specific exemplary construct, approximately 500 bp of the sequence upstream of the hsp26 gene were ligated to the coding region of GFP-uv in pRS316 to provide for expression of the GFP-uv reporter polypeptide under control of the HSP26 promoter.
(§2) 80% of all heterozygous deletion strains of Saccharomyces cerevisiae have been constructed. Heterozygous deletion strains were generated using homologous gene transplacement (Rothstein, R. (1991) Meth. Enzymol. 194:281-301) in wild-type diploid strains using standard methods. The resulting heterozygotes carry a deletion in one of the two copies of a given gene.
(§3) The above-described HSP26 construct and a control construct (containing no upstream HSP26 promoter sequence) is transformed into 4 strains: a wildtype strain and strains heterozygous for ALG7, HIS3, and TUB2. The his3 heterozygous strain is sensitive to 3-amino triazole; the alg7 heterozygous strain is sensitive to tunicamycin; and the tub2 heterozygous strain is sensitive to benomyl. The expression of hsp26 activity is then monitored using a fluorimeter. Comparisons (with predicted expectations) are as follows: […]

The next series relates to alg7 heterozygote. Described as above. The class given is cell-based, Saccharomyces cerevisiae. More on the design: key: F = fluorescent activity from hsp reporter construct, indicating stress response is induced; NF = no fluorescence, no induction of stress response. The conditions noted are these: predicted expectations.
Excerpt: as §1, §2, §3

The subject of another series is his3 heterozygote. Described as above. The class given is cell-based, Saccharomyces cerevisiae. The conditions noted are these: predicted expectations. More on the design: key: F = fluorescent activity from hsp reporter construct, indicating stress response is induced; NF = no fluorescence, no induction of stress response.
Excerpt: as §1, §2, §3

A further series concerns Wildtype strain. The series is described as above. The class given is cell-based, Saccharomyces cerevisiae. More on the design: key: F = fluorescent activity from hsp reporter construct, indicating stress response is induced; NF = no fluorescence, no induction of stress response. As to conditions: predicted expectations.
Excerpt: as §1, §3

Series [1] deals with yeast stress response genes. As to conditions: published data, cited from earlier work.
In series [2] the test system is yeast stress response genes. The conditions noted are these: MMS 0.1%; published data; cited from earlier work.
Another series concerns tub2 heterozygous strain. As to conditions: cited from earlier work.

The values that follow come from patent publication US6743583B2, “Identification of drugs and drug targets by detection of the stress response” (priority 2000, dated 2004).

Like-named read-outs stand apart in the source and are kept apart here.

With `Nc1nc[nH]n1` [3-amino triazole, 3-amino-triazole], the “sensitivity of strain to drug” value in the series on his3 heterozygous strain was “sensitive”. Also, the “fluorescent activity from hsp26 reporter construct” value in the series on tub2 heterozygote is “F”; with alg7 heterozygote, “F”; in the series on his3 heterozygote, “NF”; with Wildtype strain, “F”.

Take `C=CC[C@@H]1/C=C(\C)C[C@H](C)C[C@H](OC)[C@H]2O[C@@](O)(C(=O)C(=O)N3CCCC[C@H]3C(=O)O[C@H](/C(C)=C/[C@@H]3CC[C@@H](O)[C@H](OC)C3)[C@H](C)[C@@H](O)CC1=O)[C@H](C)C[C@@H]2OC` [FK506]: in series [1] (FK506 50 μM), the “fold induction of DDR48 (YMR173w)” value was 1 fold, the “fold induction of HSP10 (YOR020C)” value is on record as 1 fold, the “fold induction of HSP12 (YFL014W)” value is on record as 1 fold and the “fold induction of HSP26 (YBR072W)” value is recorded as 7.1 fold. Besides, in series [1] (FK506 50 μM), the “fold induction of HSP30 (YCR021C)” value is given as 2.3 fold, the “fold induction of HSP42 (YDR171w)” value was 8.7 fold, the “fold induction of HSP60 (YLR259C)” value is 1 fold and the “fold induction of HSP78 (YDR258C)” value was 1 fold. In series [1] (FK506 50 μM), the “fold induction of HSP82 (YPL240C)” value is 1 fold, the “fold induction of HSP104 (YLL026W)” value is reported as 1 fold, the “fold induction of SSA1 (YAL005C)” value is recorded as 1 fold and the “fold induction of UBC5 (YDR059c)” value is 1.1 fold. Further, in series [1] (FK506 50 μm), the “fold induction of AMS1 (YGL156W)” value was 2.2 fold, the “fold induction of GFA1 (YKL104C)” value is 1 fold, the “fold induction of GSC2 (YGR032W)” value was 1.1 fold and the “fold induction of HXT5 (YHR096C)” value is reported as 1.6 fold. Besides, in series [1] (FK506 50 μm), the “fold induction of ISF1 (YMR081C)” value is 5.4 fold, the “fold induction of PAI3 (YMR174C)” value is reported as 1 fold, the “fold induction of PRY1 (YJL079C)” value is given as 1 fold and the “fold induction of PUT1 (YLR142W)” value was 7.6 fold. Also, in series [1] (FK506 50 μm), the “fold induction of SNZ3 (YFL059W)” value was 6.3 fold, the “fold induction of TSI1 (YLR178C)” value was 1.3 fold, the “fold induction of YBL049W” value is 6.7 fold and the “fold induction of YDR018C” value is listed as 8.9 fold. In series [1] (FK506 50 μm), the “fold induction of YFL030W” value is recorded as 2 fold, the “fold induction of YFR026C” value is 3.7 fold, the “fold induction of YGR043C” value is 2.1 fold and the “fold induction of YIL042C” value is 2.7 fold. Also, in series [1] (FK506 50 μm), the “fold induction of YIL117C” value is reported as 1 fold, the “fold induction of YJL144W” value is listed as 7.6 fold, the “fold induction of YKL107W” value is given as 2.5 fold and the “fold induction of YLR053C” value is on record as 5.5 fold. In addition, in series [1] (FK506 50 μm), the “fold induction of YLR080W” value is 5.5 fold, the “fold induction of YLR194C” value is 1 fold, the “fold induction of YMR040W” value is 1.6 fold and the “fold induction of YMR090W” value is 1.2 fold. Also, in series [1] (FK506 50 μm), the “fold induction of YMR107W” value is 5.9 fold, the “fold induction of YNL194C” value was 6.3 fold and the “fold induction of YPS3 (YLR121C)” value is on record as 2.5 fold.

As to `COS(C)(=O)=O` [MMS], in series [2], the “fold induction of AMS1 (YGL156W)” value is reported as 3.3 fold, the “fold induction of DDR48 (YMR173w)” value is recorded as 6 fold, the “fold induction of GFA1 (YKL104C)” value is recorded as 3.3 fold and the “fold induction of GSC2 (YGR032W)” value is 2.5 fold. Moreover, in series [2], the “fold induction of HSP10 (YOR020C)” value is reported as 1 fold, the “fold induction of HSP12 (YFL014W)” value is listed as 4.2 fold, the “fold induction of HSP26 (YBR072W)” value was 2.6 fold and the “fold induction of HSP30 (YCR021C)” value is recorded as 2 fold. In series [2], the “fold induction of HSP42 (YDR171w)” value is given as 1.5 fold, the “fold induction of HSP60 (YLR259C)” value is listed as 1 fold, the “fold induction of HSP78 (YDR258C)” value is given as 2.8 fold and the “fold induction of HSP82 (YPL240C)” value is listed as 1.8 fold. Besides, in series [2], the “fold induction of HSP104 (YLL026W)” value is 2 fold, the “fold induction of HXT5 (YHR096C)” value was 1.9 fold, the “fold induction of ISF1 (YMR081C)” value is 2.9 fold and the “fold induction of PAI3 (YMR174C)” value is listed as 5.1 fold. In series [2], the “fold induction of PRY1 (YJL079C)” value is listed as 1 fold, the “fold induction of PUT1 (YLR142W)” value is on record as 1 fold, the “fold induction of SNZ3 (YFL059W)” value is listed as 2.3 fold and the “fold induction of SSA1 (YAL005C)” value is on record as 6.4 fold. Besides, in series [2], the “fold induction of TSI1 (YLR178C)” value is given as 5.7 fold, the “fold induction of UBC5 (YDR059c)” value is 5.5 fold, the “fold induction of YBL049W” value was 1 fold and the “fold induction of YDR018C” value is reported as 1 fold. In series [2], the “fold induction of YFL030W” value is 5 fold, the “fold induction of YFR026C” value is given as 2.2 fold, the “fold induction of YGR043C” value is reported as 3.5 fold and the “fold induction of YIL042C” value was 1.4 fold. Besides, in series [2], the “fold induction of YIL117C” value is 2.3 fold, the “fold induction of YJL144W” value is reported as 1.6 fold, the “fold induction of YKL107W” value is 1.7 fold and the “fold induction of YLR053C” value is 1 fold. In series [2], the “fold induction of YLR080W” value was 5.6 fold, the “fold induction of YLR194C” value is on record as 1 fold, the “fold induction of YMR040W” value is reported as 1.5 fold and the “fold induction of YMR090W” value is reported as 8 fold. In addition, in series [2], the “fold induction of YMR107W” value is on record as 1 fold, the “fold induction of YNL194C” value is 2.9 fold and the “fold induction of YPS3 (YLR121C)” value is reported as 1 fold.

In the case of `CCCCNC(=O)n1c(NC(=O)OC)nc2ccccc21` [benomyl], the “fluorescent activity from hsp26 reporter construct” value in the series on tub2 heterozygote is listed as “NF”; in the series with alg7 heterozygote it was “F”; in the series with his3 heterozygote, “F”; with Wildtype strain, “F”. For the same molecule, the “sensitivity of strain to drug” value in the series on tub2 heterozygous strain was “sensitive”.
